Reference: paper doi:10.1101/2024.07.10.602890, “H105A peptide eye drops promote photoreceptor survival in murine and human models of retinal degeneration” (bioRxiv, 2024)
Ends that are not written are not given here.

Key:
[1] = system: rd10 and rd10/Serpinf1−/− mice; experiment: Electroretinography (ERG) a-wave and b-wave after peptide eye drops; format: in vivo, mouse; conditions: rd10 mice; daily eye drops of AlexaFl488-labelled peptide P15-P20, ERG at P21; n = 3 per condition
Source text: Fig. 5: Effect of daily eyedrops of PEDF peptides on ERG a-wave and b-wave retinal function (A and B) Representative ERG waveforms for rd10 (A) and rd10/Serpinf1^−/− (B) mice at P21 in response to a light flash (1 cd.s/m^2). Amplitude (y-axis) is plotted against time in milliseconds (ms, x-axis). Treatments are indicated to the right of each plot and are color coded, with control wild type C57Bl/6J mice without peptide treatment shown in blue. A-wave and b-wave are indicated by arrows. (C and D) Photoreceptor a-wave amplitudes. Averages of photoreceptor a-wave amplitudes for rd10 (C) and rd10/Serpinf1^−/− (D) mice as a function of light intensity (cd/s.m^2, x-axis). Responses of animals treated with 17-mer are shown in green, H105A in black, and vehicle (HBSS) in red. Wildtype responses are shown in blue. (E and F) Bipolar cell b-wave amplitudes. Averages of bipolar cell b-wave amplitudes for rd10 (E) and rd10/Serpinf1^−/− (F) mice as a function of light intensity (cd/s.m^2, x-axis), with treatments indicated as in panels (C) and (D). The number of mice evaluated for the data shown in Panels C-F were n = 8 for each rd10, rd10/Serpinf1^−/− and wild type. Each data point represents the average ± SD of each genotype, analyzed by unpaired t-test. Statistical significance between H105A and vehicle is indicated by ##p < 0.01, ###p < 0.001, ####p < 0.0001, and between H105A and 17-mer by **p < 0.01, ***p < 0.001, ****p < 0.0001.
Electroretinogram (ERG) for rd10 and rd10/Serpinf1^−/− mice were recorded in both eyes of each animal using an Espion E2 system with ColorDome (Diagnosys LLC) with a heated surface and mice were dark-adapted overnight as previously described ([29]). Mice were placed on the heated surface and electrodes were placed in the mouth and a subdermal platinum needle electrode was placed in the back of the mouse to serve as ground. Responses were elicited with increasing light impulses with intensity from 0.0001 to 10 cd-seconds per meter squared (cd.s/m^2). Amplitudes for a-wave were measured from stimulus to the trough of the a-wave and b-wave amplitudes were measured from a-wave to b-wave trough or peak. The values from the a and b waves for both eyes were exported to Microsoft Excel to obtained amplitude values for each mouse.
(§1) Figure S2. Effects of extending the timeline or administering eye drops of 17-mer[H105A] peptide every other day in rd10 mic e.
Eye drops of H105A peptide solution were administered to r d1 0 mice either daily (Fig. S2A) or every other day (Fi g. S 2D). A total of 5 µl of a solution containing H105A peptide at 1 mg/ml in HBSS were applied as eye drops. The vehicle HBSS was added as eye drops in the contralateral eyes. When eye […]
intensity light at P25 (Fig. S2C). When eye drops of H105A were added every other day, a rescue in the ONL thickness in r d10 mice compared to vehicle was also observed (Fi g. S 2E), with an improvement in a- […]
efficacy of peptide H105A eye drops either daily or every other day in an extended timeline to stabilize photoreceptor morphology and light response function loss in r d10 mice, however, these were less efficacious than daily H105A peptide eye drops. […]
(C) ERG of r d1 0 mice at P25 and treated as in Fi g. […] For ERG data shown, the number of mice evaluated were n =5 for rd10 and each data point corresponds to the average ± SD of each genotype by unpaired t-test. *p < 0.05, **p < 0.01, * ** p < 0 .001 , ****p < 0.0001. […]

[2] = system: rd10 and rd10/Serpinf1−/− mice; experiment: In vivo photoreceptor cell death (PS externalization) by PSVue-550 fluorescence fundoscopy; set-up: species or system mouse
Experimental: Fig. 2: Effect of PEDF peptide eye drops on protection against photoreceptor cell death in rd10 and rd10/Serpinf1^−/− mice (A) Illustration of the experimental timeline of peptide application. Eye drops containing 5 μl of 17-mer, H105A, or R99A peptides in HBSS were administered daily to eyes of rd10 and rd10/Serpinf1^−/− mice from P15 to P20. Vehicle (HBSS) was applied in contralateral eyes. At P20, PSVue® was applied via eye drops, and fluorescence fundoscopy was conducted at P21 to assess photoreceptor cell death. RE and LE refer to the right and left eyes, respectively. (B) Fluorescence fundoscopy micrographs. Representative fluorescence fundoscopy images of retinas from mice treated as in Panel A with eyedrops of 1 mg/ml of each peptide. Quantification of fluorescence intensity was performed using ImageJ, with average intensity values corrected for background fluorescence from eyes that had not received PSVue or peptides. […] Statistical significance was determined by unpaired t-test (****p < 0.0001). […] Representative fluorescence fundoscopy micrographs showing retinas treated with varying concentrations of 17-mer and H105A peptides (0.0 mg/ml to 1.0 mg/ml) in rd10 and rd10/SerpinfT^−/− mice. Fluorescence intensity was quantified and analyzed using Sigmoidal interpolation in GraphPad. […]

[3] = system: rd10 and rd10/Serpinf1−/− mice; experiment: Retinal histology (H&E), OS length and ONL thickness spider plots after peptide eye drops; format: in vivo, mouse; conditions: daily eye drops 1 mg/ml; rd10 and rd10/Serpinf1−/− mice; P21
Experimental: Fig. 4: Effect of eyedrops of 17-mer and H105A peptides on photoreceptor morphology of rd10 and rd10/Serpinf1−/− mice (A and B) Histological Evaluation. Representative microphotographs of retina sections from rd10 (A) and rd10/Serpinf1−/− (B) mice treated with 17-mer, H105A, or R99A peptides at 1 mg/ml, or with vehicle (HBSS), compared to wild type C57Bl/6J mice. Sections were stained with hematoxylin and eosin. Spider Plot illustrate the thickness of the outer nuclear layer (ONL) in rd10 (C) and rd10/Serpinf1−/− (D) mice. Five retinas per group were analyzed and each data point represents the average ± SEM per location relative to the optic nerve (ON), analyzed using One-way ANOVA. Statistics for comparisons between H105A and vehicle is indicated by #p < 0.05, #p < 0.05, ##p < 0.01, ###p < 0.001). Statistics for comparisons between H105A and 17-mer is indicated by *p < 0.05. Scale bar = 50 μm.
Both eyes were oriented before enucleation to allow sectioning along the dorsal/ventral axis. Enucleated eyes from rd10 and rd10 × Serpinf1^−/− mice were incised in the cornea and fixed in 2.5% glutaraldehyde for 20 min and then in 10% neutral buffered formalin at 4°C for at least 48 h, followed by paraffin embedding, sectioning, and staining with either H&E or immunofluorescence procedures, as previously described ([28]). For fluorescence microscopy, antibodies, and 0.1 μg/ml DAPI were used to immunostain and nuclei counterstain the sections, respectively. Antibodies used in the study are in Table S3. Images were acquired using a ZEIS 700 confocal microscope. Fluorescence intensity was quantified using ImageJ as previously described ([14], [26]).
To generate spider plots, the ONL thickness was measured from images acquired with light microscopy of the retina sections stained with H&E or images of retina sections stained with DAPI with a dorsal-ventral orientation. The ONL thickness in the entire retina sections was measured at 5 different positions from both sides of the optic nerve (ON) using ImageJ, as described before ([28]). Alternatively, for DAPI stained images, a customed macro implemented in ImageJ was used to select only the ONL.
as §1
Eye drops of H105A peptide solution were administered to r d1 0 mice either daily (Fig. S2A) or every other day (Fi g. S 2D). A total of 5 µl of a solution containing H105A peptide at 1 mg/ml in HBSS were applied as eye drops. The vehicle HBSS was added as eye drops in the contralateral eyes. […]
ONL thickness in r d10 mice compared to vehicle was also observed (Fi g. S 2E), with an improvement in a- […]
efficacy of peptide H105A eye drops either daily or every other day in an extended timeline to stabilize photoreceptor morphology and light response function loss in r d10 mice, however, these were less efficacious than daily H105A peptide eye drops.
(A) Scheme showing a timeline of peptide administration via daily eye drops of H105A peptide to r d10 mice between P15 and P2 4. […]
(B) Representative microphotographs of retinal cross sections of r d1 0 treated as in Fig. S2A and stained with hematoxylin and eosin are shown. […]
(D) Scheme showing a timeline of peptide administration via eye drops of H105A peptide to rd10 mice starting at P15 every other day until P23. Assays were at P25.
(E) Representative microphotographs of retinal cross sections of r d1 0 treated as in Fig. S2D and stained […]
average ± SD per location relative to the ON per genotype by unpaired t-test. *p < 0.05, […]
(F) ERG of r d1 0 mice at P25 and treated as in Fig. S2D were performed in response to a STR. […]

## AlexaFl-QRTESIIARALYYDLIS-COOH [AlexaFl-488-H105A, H105A peptide conjugated to Alexa Fluor 488 dye]
[1]
  neuroprotective activity of labelled peptides as assessed by ERG: exhibited neuroprotective activity

## AlexaFl-QRTESIIHRALYYDLIS-COOH [AlexaFl-488-17-mer, 17-mer conjugated to Alexa Fluor 488 dye]
[1]
  neuroprotective activity of labelled peptides as assessed by ERG: exhibited neuroprotective activity

## QATESIIHRALYYDLIS [R99A]
[2]; daily eye drops 5 μl of 1 mg/ml, P15 to P20, fundoscopy at P21, 5 eyes per condition
  PS externalization (PSVue-550 fundi fluorescence) vs vehicle (HBSS) eye drops: no significant efficacy
[3]
  outer nuclear layer (ONL) thickness vs vehicle-treated or untreated eyes: had no effect
  photoreceptor outer segment (OS) length vs vehicle-treated or untreated eyes: had no effect

## SLGAEQRTESIIHRALYYDLISSPDIHGT [29-mer]
[2]; daily eye drops 5 μl of 1 mg/ml in HBSS from P15, P21, n = 3 retinas per genotype
  photoreceptor cell death (PSVue 550 fluorescence fundoscopy) relative to vehicle: no rescue in photoreceptor cell death
